Assay results taken from patent publication US11345650B1, “Methods and systems for crystallizing and isolating individual cannabinoids” (MYKU Biosciences LLC, priority 2021, dated 2022).

Test: Minimum concentration of CBD required for crystallization from solution
Type: physicochemical
Procedure: The minimum concentration of CBD required for selective crystallization from a solution containing a plurality of cannabinoids was evaluated.
The CBD-rich solution shown in Table A7 was diluted in MCT coconut oil to the aforementioned CBD concentrations. The samples were heated to 60° C. for about five minutes. Then, each solution was subjected to the following nucleation factors: agitation (intense stirring), cold shock (cooling solution to −20° C. and mixing), introduction of a CBD seed crystal, and exposure to a vacuum at a pressure of −25 inHg). Photographs of the crystallized cannabinoids were taken after 24 hours.
The experiment was also repeated using mixtures of cannabinoid CBD and THCa isolates in oleic acid.

For `C=C(C)[C@@H]1CCC(C)=C[C@H]1c1c(O)cc(CCCCC)cc1O` [CBD, Cannabidiol], the “lowest tested concentration of CBD that exhibited crystallization” value (CBD-rich solution with a plurality of cannabinoids diluted in MCT coconut oil, heated to 60° C., agitation, cold shock −20° C., seed crystal, vacuum −25 inHg, after 24 hours) was 19.6% and the “lowest tested concentration of CBD that crystallized” value (mixtures of CBD and THCa isolates in oleic acid (FIG. 16: 24% CBD, 1% THCA, 75% oleic acid)) was 24%.
